Consider 9 compounds from patent US20070203126A1, “Synergistic Mixtures of O-Phenylphenol and Dazomet” (priority 2002, published 2007).

This experiment concerns artificial bacterial consortium containing approximately equal numbers of six bacterial strains. Kind of experiment: bacterial growth inhibition dose protocol in synthetic white water (O.D. 650 nm, 4 hours). In kind it is cell-based. To be noted: for Synergy Index / Synergy Index**: SI<1 synergism; for ppm BCDMH: BCDMH alone or in blend with NaOPP giving 50% inhibition; for ppm BIT: BIT alone or in blend with NaOPP giving 50% inhibition; for ppm BNS: BNS alone or in blend with NaOPP giving 50% inhibition; for ppm DBNPA: DBNPA alone or in blend with NaOPP giving 50% inhibition; for ppm Dithiol: Dithiol alone or in blend with NaOPP giving 50% inhibition. The method, then:
The actives were evaluated in synthetic white water with pH values of 5.5 and 8.0. The materials were tested against an artificial bacterial consortium containing approximately equal numbers of six bacterial strains. […] Two of the strains were Kiebsiella pneumoia (ATCC 13883) and Pseudomonas aeruginosa (ATCC 15442). The other four strains were isolated from papermill systems and have been identified as Curtobacterium flaccumfaciens, Burkhlderia cepacia, Bacillus maroccanus, and Pseudomonas glethei. Each strain was inoculated at 37° C. overnight, then suspended in sterile saline. Equal volumes of each strain were then combined to prepare the consortium. The bacterial consortium was distributed into the wells of a microtiter plate in the presence or absence of various concentrations of the active materials. The microtiter plates were incubated at 37° C. Optical density (O.D.) readings at 650 nm were taken initially (t0) and after time 4 hours (t4) of incubation.
The raw data was converted to “bacterial growth inhibition percentages” according to the following formula: % Inhibition=[(a−b)÷a]·100 […]
a=(O.D. of control at tn)−(O.D. of control at t0) b=(O.D. of treatment at tn)−(O.D. of treatment at t0)
The inhibition values can be plotted versus dosage for each active and the particular blend. […] The synergism index (SI) was calculated by the equations described by F. C. Kull, P. C. Eisman, H. D. Sylwestrowicz, and R. L. Mayer (1961), Applied Microbiology 9, 538-541. The values are based on the amount needed to achieve a specified end point. […] Synergy Index (SI)=(QA÷Qa)+(QB÷Qb) […]
QA=quantity of compound A in mixture, producing the end point
Qa=quantity of compound A1 acting alone, producing the end point
QB=quantity of compound B in mixture, producing the end point
Qb=quantity of compound B1 acting alone, producing the end point
If SI is less than 1, synergism exists; if SI is greater than 1, antagonism exists, if SI is equal to 1, an additive effect exists.

The mark [1] stands for this setting: pH 5.5, BCDMH & NaOPP, end point 50% inhibition.
[2] abbreviates: pH 8.0, BCDMH & NaOPP, end point 50% inhibition.
The mark [3] stands for this setting: pH 5.5, BIT & NaOPP, end point 50% inhibition.
Setting [4] is: pH 8.0, BIT & NaOPP, end point 50% inhibition.
The mark [5] stands for this setting: pH 5.5, BNS & NaOPP, end point 50% inhibition.
Setting [6] is: pH 8.0, BNS & NaOPP, end point 50% inhibition.
[7] abbreviates: pH 5.5, DBNPA & NaOPP, end point 50% inhibition.
[8] abbreviates: pH 8.0, DBNPA & NaOPP, end point 50% inhibition.
[9] abbreviates: pH 5.5, DIMTS & NaOPP, end point 50% inhibition.
Setting [10] is: pH 8.0, DIMTS & NaOPP, Calculated Using 40% Inhibition of Bacterial Growth.
The mark [11] stands for this setting: pH 5.5, Dithiol & NaOPP, end point 50% inhibition.
Setting [12] is: pH 8.0, Dithiol & NaOPP, end point 50% inhibition.
The mark [13] stands for this setting: pH 5.5, NaOCl & NaOPP, Calculated Using 30% Inhibition of Bacterial Growth.
Setting [14] is: pH 5.5, Sulfone & NaOPP, end point 50% inhibition.
Setting [15] is: pH 8.0, Sulfone & NaOPP, end point 50% inhibition.

On to `CC1(C)C(=O)N(Cl)C(=O)N1Br` [BCDMH, 1-Bromo-3-chloro-5,5-dimethylhydantoin], for which the “Synergy Index” value turned out to be 1.00 under setting [1] and 1.00 under setting [2]. For the same compound, the “ppm BCDMH” value is on record as 14.60 ppm (pH 5.5, ppm active) and 34.37 ppm (pH 8.0, ppm active).

Turning to `O=c1[nH]sc2ccccc12` [BIT, 1,2-Benzisothiazolin-3-one], the “Synergy Index” value under setting [3] is listed as 1.00 and the “Synergy Index” value under setting [4] came to 1.00. The “ppm BIT” value (pH 5.5, ppm active) is given as 1.46 ppm and the “ppm BIT” value (pH 8.0, ppm active) worked out at 2.86 ppm.

As to `O=[N+]([O-])C(Br)=Cc1ccccc1` [BNS, Bromonitrostyrene], the “Synergy Index” value is, setting by setting: under setting [5], 1.00; under setting [6], 1.00. Further, the “ppm BNS” value (pH 5.5, ppm active) is given as 1.19 ppm and the “ppm BNS” value (pH 8.0, ppm active) is 3.08 ppm.

As for `N#CC(Br)(Br)C(N)=O` [DBNPA, 2,2-Dibromo-3-nitrilopropionamide], the “Synergy Index” value runs as follows: under setting [7], 1.00; under setting [8], 1.00. The “ppm DBNPA” value (pH 5.5, ppm active) amounted to 1.69 ppm and the “ppm DBNPA” value (pH 8.0, ppm active) turned out to be 3.01 ppm.

For `Cc1ccc(S(=O)(=O)C(I)I)cc1` [DIMTS, Diiodomethyl-p-tolylsulfone], the “Synergy Index” value under setting [9] is 1.00. For the same compound, the “ppm DIMTS” value (pH 5.5, DIMTS alone or in blend with NaOPP giving 50% inhibition, ppm active) amounted to 31.65 ppm and the “ppm DIMTS” value (pH 8.0, DIMTS alone or in blend with NaOPP producing the end point, footnote: 40% Inhibition of Bacterial Growth) is on record as 22.84 ppm. Besides, the “Synergy Index**” value under setting [10] was 1.00.

With `O=c1ssc(Cl)c1Cl` [Dithiol, 4,5-Dichloro-1,2-dithiol-3-one], the “Synergy Index” value was 1.00 under setting [11] and 1.00 under setting [12]. Further, the “ppm Dithiol” value stood at 0.073 ppm (pH 5.5, ppm active) and 0.16 ppm (pH 8.0, ppm active).

Consider `OCl` [NaOCl, Sodium Hypochlorite], for which the “Synergy Index**” value under setting [13] is on record as 1.00. The “ppm NaOCl” value (pH 5.5, NaOCl alone or in blend with NaOPP producing the end point, footnote: 30% Inhibition of Bacterial Growth) stood at 55.27 ppm.

For `[Na+].[O-]c1ccccc1-c1ccccc1` [NaOPP, Sodium orthophenylphenate], the “Synergy Index” value by setting is: under setting [1], 1.00; under setting [3], 1.00; under setting [5], 1.00; under setting [7], 1.00; under setting [9], 1.00; (pH 5.5, Dazomet & NaOPP, end point 50% inhibition) 1.00. Moreover, the “Synergy Index” value runs as follows: under setting [11], 1.00; (pH 5.5, Iso & NaOPP, end point 50% Inhibition) 1.00; under setting [14], 1.00; under setting [2], 1.00; under setting [4], 1.00; under setting [6], 1.00. Also, the “Synergy Index” value by setting is: under setting [8], 1.00; (pH 8.0, Dazomet & NaOPP, end point 50% inhibition) 1.00; under setting [12], 1.00; (pH 8.0, Iso & NaOPP, end point 50% Inhibition) 1.00; under setting [15], 1.00. Moreover, the “Synergy Index**” value is 1.00 under setting [13] and 1.00 under setting [10]. The “ppm NaOPP” value by setting is: (pH 5.5, NaOPP alone or in blend with BCDMH giving 50% inhibition, ppm active) 78.40 ppm; (pH 5.5, NaOPP alone or in blend with BIT giving 50% inhibition, ppm active) 84.96 ppm; (pH 5.5, NaOPP alone or in blend with BNS giving 50% inhibition, ppm active) 90.47 ppm; (pH 5.5, NaOPP alone or in blend with DBNPA giving 50% inhibition, ppm active) 88.38 ppm; (pH 5.5, NaOPP alone or in blend with DIMTS giving 50% inhibition, ppm active) 84.10 ppm; (pH 5.5, NaOPP alone or in blend with Iso giving 50% Inhibition, ppm active) 82.73 ppm. Further, the “ppm NaOPP” value (pH 5.5, NaOPP alone or in blend with NaOCl producing the end point, footnote: 30% Inhibition of Bacterial Growth) amounted to 54.92 ppm; the “ppm NaOPP” value (pH 5.5, NaOPP alone or in blend with Sulfone giving 50% inhibition, ppm active) amounted to 56.78 ppm; the “ppm NaOPP” value (pH 8.0, NaOPP alone or in blend with BIT giving 50% inhibition, ppm active) is on record as 116.41 ppm; the “ppm NaOPP” value (pH 8.0, NaOPP alone or in blend with BNS giving 50% inhibition, ppm active) is recorded as 123.16 ppm; the “ppm NaOPP” value (pH 8.0, NaOPP alone or in blend with DBNPA giving 50% inhibition, ppm active) is given as 137.13 ppm; the “ppm NaOPP” value (pH 8.0, NaOPP alone or in blend with DIMTS producing the end point, footnote: 40% Inhibition of Bacterial Growth) worked out at 97.74 ppm. Moreover, the “ppm NaOPP” value reads like this: (pH 8.0, NaOPP alone or in blend with Dazomet giving 50% inhibition, ppm active) 158.32 ppm; (pH 8.0, NaOPP alone or in blend with Dithiol giving 50% inhibition, ppm active) 132.71 ppm; (pH 8.0, NaOPP alone or in blend with Iso giving 50% Inhibition, ppm active) 114.14 ppm; (pH 8.0, NaOPP alone or in blend with Sulfone giving 50% inhibition, ppm active) 67.8 ppm.

Consider `O=S(=O)(C(Cl)(Cl)Cl)C(Cl)(Cl)Cl` [Sulfone, Bis(trichlormethyl)sulfone], for which the “Synergy Index” value runs as follows: under setting [14], 1.00; under setting [15], 1.00. In addition, for the setting “pH 5.5, Sulfone alone or in blend with NaOPP giving 50% inhibition, ppm active”, the “ppm Sulfone” value stood at 1.154 ppm. Besides, the “Ppm Sulfone” value (pH 8.0, Sulfone alone or in blend with NaOPP giving 50% inhibition, ppm active) is reported as 1.34 ppm.
